Inconclusive results and toxic doses are left out. The calls were made as follows: active = survival T/C of 150% or more; inactive = T/C below 125% in these data.
Tested on: CD2F1 mice, L1210 leukemia ip, survival T/C
Test: NCI In Vivo Anticancer Drug Screen. Data for tumor model L1210 Leukemia (intraperitoneal) in CD2F1 (CDF1) mice
Conditions: higher = longer survival
How it was run: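 Compound-dosed mice with transplantable tumor versus matched vehicle controls; endpoint ratio T/C reported.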

[1] = endpoint: mean survival time, dose: 100.0 mg/kg/injection, schedule: Q01DX001 (ip), vehicle: saline
[2] = endpoint: mean survival time, dose: 200.0 mg/kg/injection, schedule: Q01DX001 (ip), vehicle: saline
[3] = endpoint: mean survival time, dose: 400.0 mg/kg/injection, schedule: Q01DX001 (ip), vehicle: saline
[4] = endpoint: mean survival time, dose: 100.0 mg/kg/injection, schedule: Q01DX009 (ip), vehicle: saline with Tween-80
[5] = endpoint: mean survival time, dose: 200.0 mg/kg/injection, schedule: Q01DX009 (ip), vehicle: saline with Tween-80
[6] = endpoint: mean survival time, dose: 100.0 mg/kg/injection, schedule: Q04DX003 (ip), vehicle: saline with Tween-80
[7] = endpoint: mean survival time, dose: 200.0 mg/kg/injection, schedule: Q04DX003 (ip), vehicle: saline with Tween-80
[8] = endpoint: mean survival time, dose: 25.0 mg/kg/injection, schedule: Q01DX009 (ip), vehicle: saline
[9] = endpoint: mean survival time, dose: 50.0 mg/kg/injection, schedule: Q01DX009 (ip), vehicle: saline
[10] = endpoint: mean survival time, dose: 100.0 mg/kg/injection, schedule: Q01DX009 (ip), vehicle: saline
[11] = endpoint: mean survival time, dose: 12.5 mg/kg/injection, schedule: Q01DX009 (ip), vehicle: saline with Tween-80
[12] = endpoint: mean survival time, dose: 25.0 mg/kg/injection, schedule: Q01DX009 (ip), vehicle: saline with Tween-80
[13] = endpoint: mean survival time, dose: 50.0 mg/kg/injection, schedule: Q01DX009 (ip), vehicle: saline with Tween-80
[14] = endpoint: mean survival time, dose: 400.0 mg/kg/injection, schedule: Q04DX003 (ip), vehicle: saline with Tween-80

Measured: T/C

COc1ccc(C2=CCN(c3ccc(C)cc3)P(=O)(N(CCCl)CCCl)O2)cc1 (centres undefined)
inactive: endpoint: mean survival time, dose: 31.25 mg/kg/injection, schedule: Q01DX001 (ip), vehicle: saline 100 % of control | endpoint: mean survival time, dose: 62.5 mg/kg/injection, schedule: Q01DX001 (ip), vehicle: saline 100 % of control | endpoint: mean survival time, dose: 125.0 mg/kg/injection, schedule: Q01DX001 (ip), vehicle: saline 97 % of control | endpoint: mean survival time, dose: 250.0 mg/kg/injection, schedule: Q01DX001 (ip), vehicle: saline 102 % of control | endpoint: mean survival time, dose: 500.0 mg/kg/injection, schedule: Q01DX001 (ip), vehicle: saline 91 % of control

Cc1ccc(P(=S)(c2ccccc2)c2ccc(C)c3ccccc23)c2ccccc12
inactive: [1] 97 % of control | [2] 91 % of control | [3] 93 % of control

O=C1OC(=O)c2c1ccc1ccc(Cl)cc21
inactive: [4] 102 % of control | [5] 96 % of control

C1CCC2C[N-]CCC2C1.C1CCC2C[N-]CCC2C1.C1CCC2C[N-]CCC2C1.C1CCC2C[N-]CCC2C1.[I][Fe][I] (centres undefined)
inactive: [6] 108 % of control | [7] 106 % of control

CC(C)CCNc1ncnc2c1cnn2C
inactive: [8] 97 % of control | [9] 108 % of control | [10] 86 % of control | endpoint: mean survival time, dose: 100.0 mg/kg/injection, schedule: Q04DX003 (ip), vehicle: saline 116 % of control

NC(N)=N/N=C/c1c(O)ccc2ccccc12
inactive: endpoint: mean survival time, dose: 31.25 mg/kg/injection, schedule: Q01DX010 (oral), vehicle: saline 102 % of control | endpoint: mean survival time, dose: 62.5 mg/kg/injection, schedule: Q01DX010 (oral), vehicle: saline 108 % of control | endpoint: mean survival time, dose: 125.0 mg/kg/injection, schedule: Q01DX010 (oral), vehicle: saline 101 % of control

CC(CN(C)C)c1ccccn1 (centres undefined)
inactive: endpoint: mean survival time, dose: 75.0 mg/kg/injection, schedule: Q01DX001 (ip), vehicle: other 106 % of control | endpoint: mean survival time, dose: 150.0 mg/kg/injection, schedule: Q01DX001 (ip), vehicle: other 106 % of control | endpoint: mean survival time, dose: 300.0 mg/kg/injection, schedule: Q01DX001 (ip), vehicle: other 106 % of control

CC1OC(O[C@@H]2C=C3CC[C@@H]4[C@H](CC[C@]5(C)[C@@H](c6ccc(=O)oc6)CC[C@]45O)[C@@]3(C)CC2)C(O)C(O)C1O (some centres undefined)
inactive: endpoint: mean survival time, dose: 1.25 mg/kg/injection, schedule: Q01DX001 (sc), vehicle: steriod suspending solution 101 % of control | endpoint: mean survival time, dose: 1.25 mg/kg/injection, schedule: Q01DX009 (sc), vehicle: steriod suspending solution 94 % of control | endpoint: mean survival time, dose: 2.5 mg/kg/injection, schedule: Q01DX001 (sc), vehicle: steriod suspending solution 101 % of control | endpoint: mean survival time, dose: 2.5 mg/kg/injection, schedule: Q01DX009 (sc), vehicle: steriod suspending solution 97 % of control | endpoint: mean survival time, dose: 2.5 mg/kg/injection, schedule: Q04DX003 (sc), vehicle: steriod suspending solution 93 % of control | endpoint: mean survival time, dose: 5.0 mg/kg/injection, schedule: Q01DX001 (sc), vehicle: steriod suspending solution 98 % of control | endpoint: mean survival time, dose: 5.0 mg/kg/injection, schedule: Q01DX009 (sc), vehicle: steriod suspending solution 95 % of control | endpoint: mean survival time, dose: 5.0 mg/kg/injection, schedule: Q04DX003 (sc), vehicle: steriod suspending solution 95 % of control | endpoint: mean survival time, dose: 10.0 mg/kg/injection, schedule: Q01DX001 (sc), vehicle: steriod suspending solution 101 % of control | endpoint: mean survival time, dose: 10.0 mg/kg/injection, schedule: Q01DX009 (sc), vehicle: steriod suspending solution 95 % of control | endpoint: mean survival time, dose: 10.0 mg/kg/injection, schedule: Q04DX003 (sc), vehicle: steriod suspending solution 112 % of control | endpoint: mean survival time, dose: 20.0 mg/kg/injection, schedule: Q01DX001 (sc), vehicle: steriod suspending solution 103 % of control | endpoint: mean survival time, dose: 20.0 mg/kg/injection, schedule: Q04DX003 (sc), vehicle: steriod suspending solution 101 % of control | endpoint: mean survival time, dose: 40.0 mg/kg/injection, schedule: Q04DX003 (sc), vehicle: steriod suspending solution 95 % of control

C[N+](C)(C)Cc1ccc([N+](=O)[O-])cc1
inactive: endpoint: mean survival time, dose: 5.0 mg/kg/injection, schedule: Q01DX001 (ip), vehicle: saline 98 % of control | endpoint: mean survival time, dose: 10.0 mg/kg/injection, schedule: Q01DX001 (ip), vehicle: saline 106 % of control | endpoint: mean survival time, dose: 20.0 mg/kg/injection, schedule: Q01DX001 (ip), vehicle: saline 101 % of control | endpoint: mean survival time, dose: 40.0 mg/kg/injection, schedule: Q01DX001 (ip), vehicle: saline 98 % of control | endpoint: mean survival time, dose: 80.0 mg/kg/injection, schedule: Q01DX001 (ip), vehicle: saline 98 % of control

O=C1N[C@@H]2C(=C[C@H](O)[C@@H](O)[C@H]2O)c2cc3c(c(O)c21)OCO3
inactive: endpoint: median survival time, dose: 0.62 mg/kg/injection, schedule: Q01DX009 (ip), vehicle: saline with Tween-80 110 % of control | endpoint: median survival time, dose: 1.25 mg/kg/injection, schedule: Q01DX009 (ip), vehicle: saline with Tween-80 108 % of control | endpoint: median survival time, dose: 2.5 mg/kg/injection, schedule: Q01DX009 (ip), vehicle: saline with Tween-80 113 % of control | endpoint: median survival time, dose: 5.0 mg/kg/injection, schedule: Q01DX009 (ip), vehicle: saline with Tween-80 115 % of control

C(=N\Nc1nc2ccccc2o1)/c1ccncc1
inactive: endpoint: mean survival time, dose: 100.0 mg/kg/injection, schedule: Q04DX003 (ip), vehicle: Klucel (hydroxypropylcellulose) (HPC) 103 % of control | endpoint: mean survival time, dose: 200.0 mg/kg/injection, schedule: Q04DX003 (ip), vehicle: Klucel (hydroxypropylcellulose) (HPC) 95 % of control | endpoint: mean survival time, dose: 400.0 mg/kg/injection, schedule: Q04DX003 (ip), vehicle: Klucel (hydroxypropylcellulose) (HPC) 101 % of control

CC(C)=CCC/C(C)=C/COc1ccc(/C=C2/C(=O)N(O)[C@@H](C)C(=O)N2O)cc1
inactive: endpoint: mean survival time, dose: 1.56 mg/kg/injection, schedule: Q01DX009 (ip), vehicle: saline with Tween-80 101 % of control | endpoint: mean survival time, dose: 3.12 mg/kg/injection, schedule: Q01DX009 (ip), vehicle: saline with Tween-80 96 % of control | endpoint: mean survival time, dose: 3.12 mg/kg/injection, schedule: Q01DX009 (ip), vehicle: saline 94 % of control | endpoint: mean survival time, dose: 6.25 mg/kg/injection, schedule: Q01DX009 (ip), vehicle: saline with Tween-80 101 % of control | endpoint: mean survival time, dose: 6.25 mg/kg/injection, schedule: Q01DX009 (ip), vehicle: saline 96 % of control | [11] 101 % of control | endpoint: mean survival time, dose: 12.5 mg/kg/injection, schedule: Q01DX009 (ip), vehicle: saline 100 % of control | [12] 106 % of control | [8] 108 % of control | [13] 112 % of control | [9] 100 % of control | [10] 100 % of control

O=C(O)c1cc(Cl)[nH]c(=O)c1
inactive: [6] 91 % of control | [7] 91 % of control | [14] 91 % of control

O=P(OCCCCl)(OCCCCl)C(Cl)Cl
inactive: [1] 102 % of control | [2] 102 % of control | [3] 103 % of control

c1cc2c(cc1CNC1=NCCO1)OCO2
inactive: [6] 98 % of control | [7] 105 % of control | [14] 98 % of control

CCCCOC(=O)c1ccc(NC(=O)Nc2ccccc2Cl)cc1
inactive: [13] 89 % of control | [4] 86 % of control | [6] 91 % of control | [5] 96 % of control | [7] 100 % of control

[I][Pt][I].c1ccc([PH+](c2ccccc2)c2ccccc2)cc1.c1ccc([PH+](c2ccccc2)c2ccccc2)cc1
inactive: endpoint: mean survival time, dose: 6.25 mg/kg/injection, schedule: Q04DX002 (ip), vehicle: saline with Tween-80 104 % of control | endpoint: mean survival time, dose: 12.5 mg/kg/injection, schedule: Q04DX002 (ip), vehicle: saline with Tween-80 93 % of control | endpoint: mean survival time, dose: 25.0 mg/kg/injection, schedule: Q04DX002 (ip), vehicle: saline with Tween-80 96 % of control | endpoint: mean survival time, dose: 100.0 mg/kg/injection, schedule: Q04DX002 (ip), vehicle: saline with Tween-80 87 % of control | endpoint: mean survival time, dose: 400.0 mg/kg/injection, schedule: Q04DX002 (ip), vehicle: saline with Tween-80 91 % of control

O=C(N/N=C\c1ccc(F)cc1)N/N=C/c1ccc(F)cc1
inactive: [11] 93 % of control | [12] 91 % of control | [13] 91 % of control | [5] 90 % of control | endpoint: mean survival time, dose: 400.0 mg/kg/injection, schedule: Q01DX009 (ip), vehicle: saline with Tween-80 90 % of control

CCOP(=O)(OCC)c1ncn(C2OC(CO)C3OC(C)(C)OC32)c1N (centres undefined)
inactive: endpoint: mean survival time, dose: 12.5 mg/kg/injection, schedule: Q01DX005 (ip), vehicle: water 92 % of control | endpoint: mean survival time, dose: 25.0 mg/kg/injection, schedule: Q01DX005 (ip), vehicle: water 100 % of control | endpoint: mean survival time, dose: 50.0 mg/kg/injection, schedule: Q01DX005 (ip), vehicle: water 96 % of control | endpoint: mean survival time, dose: 100.0 mg/kg/injection, schedule: Q01DX005 (ip), vehicle: water 92 % of control | endpoint: mean survival time, dose: 200.0 mg/kg/injection, schedule: Q01DX005 (ip), vehicle: water 92 % of control

— PubChem BioAssay AID256 (DTP/NCI, 2004)
